The target of one series is T1, human SSTR5 (Homo sapiens, UniProt P35346).
T1 construct: expressed in transfected cells
T1 sequence (P35346 whole entry): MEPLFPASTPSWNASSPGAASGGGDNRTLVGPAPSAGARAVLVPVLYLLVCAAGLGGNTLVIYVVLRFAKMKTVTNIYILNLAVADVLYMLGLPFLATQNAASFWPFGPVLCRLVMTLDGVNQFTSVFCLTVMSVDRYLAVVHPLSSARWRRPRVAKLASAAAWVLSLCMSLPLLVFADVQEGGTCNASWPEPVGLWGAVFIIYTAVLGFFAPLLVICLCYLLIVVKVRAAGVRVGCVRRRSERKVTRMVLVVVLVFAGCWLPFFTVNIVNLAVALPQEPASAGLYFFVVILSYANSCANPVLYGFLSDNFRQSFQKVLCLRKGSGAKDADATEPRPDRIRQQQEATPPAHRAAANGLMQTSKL
In words: Inositol phosphate (IP1) accumulation assay, antagonist mode. The settings on record: CHO-K1 cells stably co-expressing human SSTR5 with Gqi5; pre-incubation with antagonist, then SST28 agonist; IP1 HTRF readout. In kind it is cell-based. The source says: Inositol Phosphate Accumulation Assay
CHO-K1 cells stably co-expressing human SSTR5 with Gqi5 were developed using Jump-In technology from Thermo-Fisher. Gqi5 is the mouse G alpha q protein, that was modified to interact with Gi-coupled GPCRs as described previously (Coward, P.; Chan, S. D.; Wada, H. G.; Humphries, G. M.; Conklin, B. R. Chimeric G proteins Allow a High-Throughput Signaling Assay of Gi-Coupled Receptors. Anal Biochem. 1999, 270(2), 242-248).
Co-expression of Gqi5 with SSTR5 allowed monitoring of SSTR5 activity by following IP1 accumulation. The assay was performed in a 384-well plate format using the IP1 assay kit from Cis-Bio in an antagonist mode, i.e., pre-incubation with antagonist following by receptor activation by agonist at a concentration generating 90% of full activation. Frozen cells expressing human SSTR5 were thawed, washed, and then plated in DMEM supplemented with 10% FBS and non-essential amino acids. 40 μL of 2.5×10^5 cells/mL were plated on a Poly D-Lysine coated 384-well white plate. The cells were then incubated for 16 hr. at 37° C./5% CO2. After 16 hour the medium was removed, and 10 μL of stimulation buffer was added to the cells. Test compounds were dissolved in DMSO at concentrations 2000-fold that of the final assay concentrations. 7.5 nL compound solutions were transferred to the cell plates using a Labcyte Echo® acoustic liquid handler. The plates were then incubated for 15 minutes at 37° C./5% CO2. After the first incubation, 5 μL of 30 nM SST28 were added to the cells, and the cells were incubated for 90 minutes at 37° C./5% CO2. 5 μL of detection buffer (prepared as described in the IP-1 kit) was added to each well, and the plates were incubated at RT for 1 hour.
TR-FRET was measured using a ClarioSTAR plate reader, calculating the ratio between emissions at 665 nm and 620 nm (HTRF ratio). The HTRF ratio for positive (Max) and negative (Min) controls were used to normalize HTRF data and generate values for % inhibition. IC50 and maximal inhibition values were determined using a standard 4-parameter fit.
(In general: TR-FRET usually uses a lanthanide donor and a delayed reading to cut background.)
Turning to `CCOc1cc(-c2ccc(F)cc2)c(C2CC2)cc1CN1CCC2(CC1)CN(c1ccc(P(=O)(O)O)cc1)C(=O)O2` [Compound 1, (4-(8-((2-cyclopropyl-5-ethoxy-4′-fluoro-[1,1′-biphenyl]-4-yl)methyl)-2-oxo-1-oxa-3,8-diazaspiro[4.5]decan-3-yl)phenyl)phosphonic acid], the IC50 (commonly the concentration at which inhibition is half-maximal) was no more than 100 nM.

For the molecule `CCOc1cc(-c2ccc(F)cc2)c(C2CC2)cc1CN1CCC2(CC1)CN(c1ccc(P(C)(=O)O)cc1)C(=O)O2` [Compound 2, (4-(8-((2-cyclopropyl-5-ethoxy-4′-fluoro-[1,1′-biphenyl]-4-yl)methyl)-2-oxo-1-oxa-3,8-diazaspiro[4.5]decan-3-yl)phenyl)(methyl)phosphinic acid], the IC50 is no more than 100 nM.

The molecule `CCOc1cc(-c2ccc(F)cc2)c(C2CC2)cc1CN1CCC2(CC1)CN(c1ccc([PH](=O)O)cc1)C(=O)O2` [Compound 3, (4-(8-((2-cyclopropyl-5-ethoxy-4′-fluoro-[1,1′-biphenyl]-4-yl)methyl)-2-oxo-1-oxa-3,8-diazaspiro[4.5]decan-3-yl)phenyl)phosphinic acid] returned an IC50 of no more than 100 nM.

`CCOc1cc(C(=O)OC)c(C2CC2)cc1CN1CCC2(CC1)CC(=O)N(c1ccc(P(=O)(O)O)cc1)C2` [Compound 23, (4-(8-(5-cyclopropyl-2-ethoxy-4-(methoxycarbonyl)benzyl)-3-oxo-2,8-diazaspiro[4.5]decan-2-yl)phenyl)phosphonic acid]: the 50% inhibitory concentration (IC50) was greater than 5000 nM.

The molecule `CCOc1cc(C(=O)OC(C)C)c(C2CC2)cc1CN1CCC2(CC1)CC(=O)N(c1ccc(P(=O)(O)O)cc1)C2` [Compound 24, (4-(8-(5-cyclopropyl-2-ethoxy-4-(isopropoxycarbonyl)benzyl)-3-oxo-2,8-diazaspiro[4.5]decan-2-yl)phenyl)phosphonic acid] came in with an IC50 of 100 to 1000 nM.

Consider `CCOc1cc(-c2ccc(F)cc2)c(C2CC2)cc1CN1CCC2(CC1)CN(c1ccc(P(=O)(O)OCC)cc1)C(=O)N2` [Compound 25, ethyl hydrogen (4-(8-((2-cyclopropyl-5-ethoxy-4′-fluoro-[1,1′-biphenyl]-4-yl)methyl)-2-oxo-1,3,8-triazaspiro[4.5]decan-3-yl)phenyl)phosphonate], for which the IC50 is no more than 100 nM.

For `CCOc1cc(-c2nc(C)no2)c(C2CC2)cc1CN1CCC2(CC1)CN(c1ccc(P(=O)(O)O)cc1)C(=O)O2` [Compound 26, (4-(8-(5-cyclopropyl-2-ethoxy-4-(3-methyl-1,2,4-oxadiazol-5-yl)benzyl)-2-oxo-1-oxa-3,8-diazaspiro[4.5]decan-3-yl)phenyl)phosphonic acid], the IC50 was no more than 100 nM.

Molecule `CCOc1cc(-c2nc(C)no2)c(C2CC2)cc1CN1CCC2(CC1)CN(c1ccc(P(=O)(O)O)cc1)C(=O)N2` [Compound 27, (4-(8-(5-cyclopropyl-2-ethoxy-4-(3-methyl-1,2,4-oxadiazol-5-yl)benzyl)-2-oxo-1,3,8-triazaspiro[4.5]decan-3-yl)phenyl)phosphonic acid] showed a half-inhibitory concentration (IC50) of no more than 100 nM.

With `CCOc1cc(-c2ccc(F)cc2)c(C2CC2)cc1CN1CCC2(CC1)CN(c1ccc(P(C)(=O)O)cc1)C(=O)N2` [Compound 28, (4-(8-((2-cyclopropyl-5-ethoxy-4′-fluoro-[1,1′-biphenyl]-4-yl)methyl)-2-oxo-1,3,8-triazaspiro[4.5]decan-3-yl)phenyl)(methyl)phosphinic acid], the IC50 was no more than 100 nM.

The molecule `CCOc1cc(-c2ccc(F)cc2)c(C2CC2)cc1CN1CCC2(CC1)CC(=O)N(c1ccc(P(=O)(O)O)cc1)C2` [Compound 29, (4-(8-((2-cyclopropyl-5-ethoxy-4′-fluoro-[1,1′-biphenyl]-4-yl)methyl)-3-oxo-2,8-diazaspiro[4.5]decan-2-yl)phenyl)phosphonic acid] had a half-maximal inhibitory concentration (IC50) of no more than 100 nM.

The molecule `CCOc1cc(-c2ccc(F)cc2)c(C2CC2)cc1CN1CCC2(CC1)CN(c1ccc(CP(=O)(O)O)cc1)C(=O)O2` [Compound 30, (4-(8-((2-cyclopropyl-5-ethoxy-4'-fluoro-[1,1'-biphenyl]-4-yl)methyl)-2-oxo-1-oxa-3,8-diazaspiro[4.5]decan-3-yl)benzyl)phosphonic acid] returned an IC50 of no more than 100 nM.

Take `CCOc1cc(S(C)(=O)=O)c(C2CC2)cc1CN1CCC2(CC1)CN(c1cccc(CCCCNC(=O)NC(CO)(CO)CO)c1)C(=O)N2` [Compound 31, 1-(4-(3-(8-(5-cyclopropyl-2-ethoxy-4-(methylsulfonyl)benzyl)-2-oxo-1,3,8-triazaspiro[4.5]decan-3-yl)phenyl)butyl)-3-(1,3-dihydroxy-2-(hydroxymethyl)propan-2-yl)urea]: the IC50 is 100 to 1000 nM.

In turn, `CCOc1cc(-c2ccc(F)cc2)c(C2CC2)cc1CN1CCC2(CC1)CN(c1ccc(CNC[C@H](O)[C@@H](O)[C@H](O)[C@H](O)CO)cc1)C(=O)O2` [Compound 32, 8-((2-cyclopropyl-5-ethoxy-4'-fluoro-[1,1'-biphenyl]-4-yl)methyl)-3-(4-((((2S,3R,4R,5R)-2,3,4,5,6-pentahydroxyhexyl)amino)methyl)phenyl)-1-oxa-3,8-diazaspiro [4.5]decan-2-one] came in with an IC50 of no more than 100 nM.

The molecule `CCOc1cc(-c2ccc(F)cn2)c(C2CCC2)cc1CN1CCC2(CC1)CN(c1ccc(P(=O)(O)O)cc1)C(=O)O2` [Compound 35, (4-(8-(5-cyclobulyl-2-ethoxy-4-(5-fluoropyridin-2-yl)benzyl)-2-oxo-1-oxa-3,8-diazaspiro[4.5]decan-3-yl)phenyl)phosphonic acid] gave an IC50 of no more than 100 nM.

Regarding `CCOc1cc(-c2ccc(F)cc2)c(C2CCC2)cc1CN1CCC2(CC1)CN(c1ccc(P(=O)(O)O)cc1)C(=O)O2` [Compound 36, (4-(8-((2-cyclobutyl-5-ethoxy-4'-fluoro-[1,1'-biphenyl]-4-yl)methyl)-2-oxo-1-oxa-3,8-diazaspiro[4.5]decan-3-yl)phenyl)phosphonic acid], the IC50 is no more than 100 nM.

Consider `CCOc1cc(-c2ccc(F)cc2)c(C(C)C)cc1CN1CCC2(CC1)CN(c1ccc(P(=O)(O)O)cc1)C(=O)O2` [Compound 37, (4-(8-((5-ethoxy-4'-fluoro-2-isopropyl-[1,1'-biphenyl]-4-yl)methyl)-2-oxo-1-oxa-3,8-diazaspiro[4.5]decan-3-yl)phenyl)phosphonic acid], for which the IC50 was no more than 100 nM.

Consider `CCOc1cc(-c2ccc(F)cc2)c(C2CC2)cc1CN1CCN(S(=O)(=O)Cc2ccc(P(=O)(O)O)cc2)CC1` [Compound 38, (4-(((4-((2-cyclopropyl-5-ethoxy-4′-fluoro-[1,1′-biphenyl]-4-yl)methyl)piperazin-1-yl)sulfonyl)methyl)phenyl)phosphonic acid], for which the IC50 is no more than 100 nM.

Molecule `CCOc1cc(-c2ccc(F)cc2)c(C2CC2)cc1CN1CCN(S(=O)(=O)Cc2ccc(P(=O)(O)OCC)cc2)CC1` [Compound 39, ethyl hydrogen (4-(((4-((2-cyclopropyl-5-ethoxy-4′-fluoro-[1,1′-biphenyl]-4-yl)methyl)piperazin-1-yl)sulfonyl)methyl)phenyl)phosphonate] gave a half-maximal inhibitory concentration (IC50) of no more than 100 nM.

In the case of `CCOc1cc(-c2ccc(F)cc2)c(C2CC2)cc1CN1CCN(C(=O)Cc2ccc(P(=O)(O)OCC)cc2)CC1` [Compound 40, ethyl hydrogen (4-(2-(4-((2-cyclopropyl-5-ethoxy-4′-fluoro-[1,1′-biphenyl]-4-yl)methyl)piperazin-1-yl)-2-oxoethyl)phenyl)phosphonate], the IC50 is no more than 100 nM.

`CCOc1cc(-c2ccc(F)cc2)c(C2CC2)cc1CN1CCN(C(=O)Cc2ccc(P(=O)(O)O)cc2)CC1` [Compound 41, (4-(2-(4-((2-cyclopropyl-5-ethoxy-4′-fluoro-[1,1′-biphenyl]-4-yl)methyl)piperazin-1-yl)-2-oxoethyl)phenyl)phosphonic acid] gave a half-maximal inhibitory concentration (IC50) of no more than 100 nM.

With `CCOc1cc(C(=O)OC)c(C2CC2)cc1CN1CCN(C(=O)Oc2ccc(CNC[C@H](O)[C@@H](O)[C@H](O)[C@H](O)CO)cc2)CC1` [Compound 42, 4-((((2S,3R,4R,5R)-2,3,4,5,6-pentahydroxyhexyl)amino)methyl)phenyl 4-(5-cyclopropyl-2-ethoxy-4-(methoxycarbonyl)benzyl)piperazine-1-carboxylate], the IC50 is greater than 5000 nM.

Tested on in a further series: not listed separately
The experiment in a line: Oral bioavailability after oral dosing in rat. The settings on record: in vivo, Sprague Dawley rats, IV 1 mg/kg, PO 5 mg/kg, read-out: F % (oral bioavailability). Here is the method: Example A-2: Oral Bioavailability of the Compounds after Oral Dosing in Rat
Oral bioavailability of the compounds was determined in Sprague Dawley rats. The table below summarizes the results. Each compound was dosed intravenously (IV) at 1 mg/kg and orally (PO) 5 mg/kg using the respective vehicles listed below. The compounds display low (<10%) oral bioavailability (F %).
Take `CCOc1cc(-c2ccc(F)cc2)c(C2CC2)cc1CN1CCC2(CC1)CN(c1ccc(P(=O)(O)O)cc1)C(=O)O2` [Compound 1, (4-(8-((2-cyclopropyl-5-ethoxy-4′-fluoro-[1,1′-biphenyl]-4-yl)methyl)-2-oxo-1-oxa-3,8-diazaspiro[4.5]decan-3-yl)phenyl)phosphonic acid]: the bioavailability (commonly the share of a dose that reaches the circulation, judged against a reference dose that is usually intravenous) is 0.9%.

As for `CCOc1cc(-c2ccc(F)cc2)c(C2CC2)cc1CN1CCC2(CC1)CN(c1ccc(P(C)(=O)O)cc1)C(=O)O2` [Compound 2, (4-(8-((2-cyclopropyl-5-ethoxy-4′-fluoro-[1,1′-biphenyl]-4-yl)methyl)-2-oxo-1-oxa-3,8-diazaspiro[4.5]decan-3-yl)phenyl)(methyl)phosphinic acid], the bioavailability was 8.7%.

In the case of `CCOc1cc(-c2ccc(F)cc2)c(C2CC2)cc1CN1CCC2(CC1)CN(c1ccc([PH](=O)O)cc1)C(=O)O2` [Compound 3, (4-(8-((2-cyclopropyl-5-ethoxy-4′-fluoro-[1,1′-biphenyl]-4-yl)methyl)-2-oxo-1-oxa-3,8-diazaspiro[4.5]decan-3-yl)phenyl)phosphinic acid], the bioavailability stood at 1.9%.

Source of the values: US20230050965A1, “SSTR5 ANTAGONISTS” (Kallyope, Inc., priority 2019, published 2023).
